Key:
BRD4 BD1 = target: T1, BRD4 BD1 (Homo sapiens, UniProt O60885); test: NanoBRET bromodomain assay, NanoLuc-BRD4-BD1 in HEK293 cells; type: binding
T1 construct: HEK293 cells were transfected using NanoLuc-BRD4-BD1 or NanoLuc-BRD4-BD2 fusion vectors
Description: Exemplary compounds of the disclosure are active against BRD4 BD2 and selective over BRD4 BD1. BRD4 is a representative example of the BET family, as the binding sites of all BET family members are structurally similar. […] IC50s and fold selectivity's are determined as described below and are represented in Table 1.
(§1) Plates were then incubated at 37° C.+5% CO2 incubator for 2 hours.
(§2) Fold Selectivity Calculated (IC50 BD1/IC50 BD2).

BRD4 BD2 = target: T2, BRD4 BD2 (Homo sapiens, UniProt O60885); test: NanoBRET bromodomain assay, NanoLuc-BRD4-BD2 in HEK293 cells; type: binding; conditions: for Fold Selectivity BRD4 BD1/BD2: IC50 BD1/IC50 BD2, qualitative if an IC50 is at the upper limit
T2 construct: HEK293 cells were transfected using NanoLuc-BRD4-BD1 or NanoLuc-BRD4-BD2 fusion vectors
Description: as §1, §2

| Compound | IC50 (BRD4 BD1) [µM] | IC50 (BRD4 BD2) [µM] | Fold Selectivity BRD4 BD1/BD2 (BRD4 BD2) |
| --- | --- | --- | --- |
| COCc1ccc(-c2cc3c(-c4cc(=O)n(C)cc4-c4ccccc4)cn(C)c(=O)c3[nH]2)cc1 [Example 46, 2-(4-(methoxymethyl)phenyl)-6-methyl-4-(1-methyl-2-oxo-5-phenyl-1,2-dihydropyridin-4-yl)-1,6-dihydro-7H-pyrrolo[2,3-c]pyridin-7-one] | > 1 | < 0.01 | xxxx (Fold >1000) |
| COc1ccc(-c2cn(C)c(=O)cc2-c2cn(C)c(=O)c3[nH]c(-c4cc(C)nc(C)c4)cc23)cc1.Cl [Example 31, 2-(2,6-dimethylpyridin-4-yl)-4-(5-(4-methoxyphenyl)-1-methyl-2-ox0-1,2-dihydropyridin-4-yl)-6-methyl-1,6-dihydro-7H-pyrrolo[2,3-c]pyridin-7-one hydrogen chloride] | 0.5 to 1 | < 0.01 | xxx (Fold >200 and ≤1000) |
| Cc1cc(-c2cc3c(-c4cc(=O)n(C5CC5)cc4-c4ccccc4)cn(C)c(=O)c3[nH]2)cc(C)n1.Cl [Example 28, 4-(1-cyclopropyl-2-oxo-5-phenyl-1,2-dihydropyridin-4-yl)-2-(2,6-dimethylpyridin-4-yl)-6-methyl-1,6-dihydro-7H-pyrrolo[2,3-c]pyridin-7-one hydrogen chloride] | > 1 | < 0.01 | xxxx (Fold >1000) |
| COCCn1cc(-c2ccccc2)c(-c2cn(C)c(=O)c3[nH]c(-c4cnn(C(F)(F)F)c4)cc23)cc1=O [Example 52, 4-(1-(2-methoxyethyl)-2-oxo-5-phenyl-1,2-dihydropyridin-4-yl)-6-methyl-2-(1-(trifluoromethyl)-1H-pyrazol-4-yl)-1,6-dihydro-7H-pyrrolo[2,3-c]pyridin-7-one] | > 1 | < 0.01 | xxxx (Fold >1000) |
| Cn1cc(-c2cc(=O)n(CCOC(F)(F)F)cc2-c2ccccc2)c2cc(-c3cnn(C(F)(F)F)c3)[nH]c2c1=O [Example 59, 6-methyl-4-(2-oxo-5-phenyl-1-(2-(trifluoromethoxy)ethyl)-1,2-dihydropyridin-4-yl)-2-(1-(trifluoromethyl)-1H-pyrazol-4-yl)-1,6-dihydro-7H-pyrrolo[2,3-c]pyridin-7-one] | > 1 | 0.05 to 0.2 | xx (Fold >50 and ≤200) |
| Cn1cc(-c2cccnc2)c(-c2cn(C)c(=O)c3[nH]c(-c4cnn(C(F)(F)F)c4)cc23)cc1=O [Example 66, 6-methyl-4-(1-methyl-6-oxo-1,6-dihydro-[3,3′-bipyridin]-4-yl)-2-(1-(trifluoromethyl)-1H-pyrazol-4-yl)-1,6-dihydro-7H-pyrrolo[2,3-c]pyridin-7-one] | > 1 | 0.2 to 1 | x (Fold >2 and ≤50) |
| COCCOc1cccc(-c2cn(C)c(=O)cc2-c2cn(C)c(=O)c3[nH]c(-c4ccc(F)cc4F)cc23)c1 [Example 53, 2-(2,4-difluorophenyl)-4-(5-(3-(2-methoxyethoxy)phenyl)-1-methyl-2-oxo-1,2-dihydropyridin-4-yl)-6-methyl-1,6-dihydro-7H-pyrrolo[2,3-c]pyridin-7-one] | > 1 | < 0.01 | xxxx (Fold >1000) |
| COCc1ccc(-c2cn(C)c(=O)cc2-c2cn(C)c(=O)c3[nH]c(-c4cnn(C(F)(F)F)c4)cc23)cc1 [Example 8, 4-(5-(4-(methoxymethyl)phenyl)-1-methyl-2-oxo-1,2-dihydropyridin-4-yl)-6-methyl-2-(1-(trifluoromethyl)-1H-pyrazol-4-yl)-1,6-dihydro-7H-pyrrolo[2,3-c]pyridin-7-one] | > 1 | < 0.01 | xxxx (Fold >1000) |
| Cn1cc(-c2ccccc2)c(-c2cn(C)c(=O)c3[nH]c(-c4cnn(C(F)(F)F)c4)cc23)cc1=O [Example 34, 6-methyl-4-(1-methyl-2-oxo-5-phenyl-1,2-dihydropyridin-4-yl)-2-(1-(trifluoromethyl)-1H-pyrazol-4-yl)-1,6-dihydro-7H-pyrrolo[2,3-c]pyridin-7-one] | > 1 | < 0.01 | xxxx (Fold >1000) |
| Cn1cc(-c2ccccc2)c(-c2cn(C)c(=O)c3[nH]c(-c4ccccc4F)cc23)cc1=O [Example 42, 2-(2-fluorophenyl)-6-methyl-4-(1-methyl-2-oxo-5-phenyl-1,2-dihydropyridin-4-yl)-1,6-dihydro-7H-pyrrolo[2,3-c]pyridin-7-one] | > 1 | < 0.01 | xxxx (Fold >1000) |
| Cc1cc(-c2cc3c(-c4cc(=O)n(C)cc4-c4ccccc4Cl)cn(C)c(=O)c3[nH]2)cc(C)n1.Cl [Example 32, 4-(5-(2-chlorophenyl)-1-methyl-2-oxo-1,2-dihydropyridin-4-yl)-2-(2,6-dimethylpyridin-4-yl)-6-methyl-1,6-dihydro-7H-pyrrolo[2,3-c]pyridin-7-one hydrogen chloride] | > 1 | 0.01 to 0.05 | xxx (Fold >200 and ≤1000) |
| Cn1cc(-c2ccccc2C(F)F)c(-c2cn(C)c(=O)c3[nH]c(-c4ccc(F)cc4F)cc23)cc1=O [Example 70] | > 1 | 0.2 to 1 | x (Fold >2 and ≤50) |
| CCn1cc(-c2cc(=O)n(C)cc2-c2ccccc2)c2cc(-c3cnn(C(F)(F)F)c3)[nH]c2c1=O [Example 19, 6-ethyl-4-(1-methyl-2-oxo-5-phenyl-1,2-dihydropyridin-4-yl)-2-(1-(trifluoromethyl)-1H-pyrazol-4-yl)-1,6-dihydro-7H-pyrrolo[2,3-c]pyridin-7-one] | > 1 | < 0.01 | xxxx (Fold >1000) |

The remaining lines, values ahead:

| IC50 (BRD4 BD1) [µM] | IC50 (BRD4 BD2) [µM] | Fold Selectivity BRD4 BD1/BD2 (BRD4 BD2) | Compound |
| --- | --- | --- | --- |
| > 1 | < 0.01 | xxxx (Fold >1000) | Cc1cccc(C)c1Oc1cn(C)c(=O)cc1-c1cn(C)c(=O)c2[nH]c(-c3ccc(CO)cc3F)cc12 [Example 58, 4-(5-(2,6-dimethylphenoxy)-1-methyl-2-oxo-1,2-dihydropyridin-4-yl)-2-(2-fluoro-4-(hydroxymethyl)phenyl)-6-methyl-1,6-dihydro-7H-pyrrolo[2,3-c]pyridin-7-one] |
| > 1 | < 0.01 | xxxx (Fold >1000) | COc1cccc(-c2cc3c(-c4cc(=O)n(C)cc4Oc4c(C)cccc4C)cn(C)c(=O)c3[nH]2)c1F [Example 56, 4-(5-(2,6-dimethylphenoxy)-1-methyl-2-oxo-1,2-dihydropyridin-4-yl)-2-(2-fluoro-3-methoxyphenyl)-6-methyl-1,6-dihydro-7H-pyrrolo[2,3-c]pyridin-7-one] |
| > 1 | 0.01 to 0.05 | xxx (Fold >200 and ≤1000) | Cc1cccc(C)c1Oc1cn(C)c(=O)cc1-c1cn(C)c(=O)c2[nH]c(-c3ccccn3)cc12 [Example 38, 4-(5-(2,6-dimethylphenoxy)-1-methyl-2-oxo-1,2-dihydropyridin-4-yl)-6-methyl-2-(pyridin-2-yl)-1,6-dihydro-7H-pyrrolo[2,3-c]pyridin-7-one] |
| > 1 | 0.01 to 0.05 | xxx (Fold >200 and ≤1000) | Cc1cccc(C)c1Oc1cn(C2CC2)c(=O)cc1-c1cn(C)c(=O)c2[nH]c(-c3cn(C)nc3C)cc12 [Example 94] |
| 0.5 to 1 | 0.01 to 0.05 | x (Fold >2 and ≤50) | Cc1cccc(C)c1Oc1cn(C)c(=O)cc1-c1cn(C)c(=O)c2[nH]c(-c3cnn(CC#N)c3)cc12 [Example 96] |
| > 1 | 0.01 to 0.05 | xxx (Fold >200 and ≤1000) | Cc1cccc(-c2cc3c(-c4cc(=O)n(C)cc4Oc4c(C)cccc4C)cn(C)c(=O)c3[nH]2)c1F [Example 99] |
| 0.5 to 1 | 0.01 to 0.05 | xx (Fold >50 and ≤200) | Cc1cccc(C)c1Oc1cn(C)c(=O)cc1-c1cn(C)c(=O)c2[nH]c(-c3cn(CC(F)(F)F)nc3C)cc12 [Example 15, 4-(5-(2,6-dimethylphenoxy)-1-methyl-2-oxo-1,2-dihydropyridin-4-yl)-6-methyl-2-(3-methyl-1-(2,2,2-trifluoroethyl)-1H-pyrazol-4-yl)-1,6-dihydro-7H-pyrrolo[2,3-c]pyridin-7-one] |
| > 1 | 0.05 to 0.2 | xx (Fold >50 and ≤200) | Cc1cccc(C)c1Oc1cn(C)c(=O)cc1-c1cn(C)c(=O)c2[nH]c(-c3ccc(F)c(F)c3F)cc12 [Example 93] |
| > 1 | 0.01 to 0.05 | xx (Fold >50 and ≤200) | COCCOc1cccc(-c2cn(C)c(=O)cc2-c2cn(C)c(=O)c3[nH]c(-c4cnn(C(C)C)c4)cc23)c1 [Example 74] |
| > 1 | > 1 | — (Fold ≥0 and ≤2) | Cc1cccc(C)c1Oc1cn(C2CC2)c(=O)cc1-c1cn(C)c(=O)c2[nH]c(-c3cccc(F)c3F)cc12 [Example 87] |
| > 1 | < 0.01 | xxxx (Fold >1000) | COCc1cccc(-c2cn(C)c(=O)cc2-c2cn(C)c(=O)c3[nH]c(-c4cnn(C(F)(F)F)c4)cc23)c1 [Example 7, 4-(5-(3-(methoxymethyl)phenyl)-1-methyl-2-oxo-1,2-dihydropyridin-4-yl)-6-methyl-2-(1-(trifluoromethyl)-1H-pyrazol-4-yl)-1,6-dihydro-7H-pyrrolo[2,3-c]pyridin-7-one] |
| 0.05 to 0.5 | < 0.01 | x (Fold >2 and ≤50) | Cc1cccc(C)c1Oc1cn(C)c(=O)cc1-c1cn(C)c(=O)c2[nH]c(-c3cnn(CCF)c3)cc12 [Example 14, 4-(5-(2,6-dimethylphenoxy)-1-methyl-2-oxo-1,2-dihydropyridin-4-yl)-2-(1-(2-fluoroethyl)-1H-pyrazol-4-yl)-6-methyl-1,6-dihydro-7H-pyrrolo[2,3-c]pyridin-7-one] |

Source: US20260217701A1, “SELECTIVE BET INHIBITORS AND USES THEREOF” (Tay Therapeutics Limited, priority 2022, published 2026)
